Among the data in ChEMBL document CHEMBL4732176, “Synthesis and biological evaluation of novel N-substituted benzamides as anti-migration agents for treatment of osteosarcoma” (Eur J Med Chem, 2021) are IC50, inhibition and Activity values, retold here.

Active and inactive are the calls of the source. The rule behind the calls is not given here.

One data set deals with MG-63. In words: Cytotoxicity against human MG-63 cells assessed as reduction in cell viability incubated for 48 hrs by MTT assay. Type of data set: functional, cell-based. The settings on record: MG-63, 48 h. For orientation: Tetrazolium dyes change colour on reduction, which living cells bring about.
A word on the IC50: it is the concentration needed to halve the response being measured. Regarding `O=C(Nc1cc(C(F)(F)F)cc(C(F)(F)F)c1)c1cc(Cl)ccc1O` [IMD-0354], the IC50 is 48.7 µM.

System in another data set: not listed separately
In words: Cytotoxicity against human MIHA cells assessed as reduction in cell viability incubated for 48 hrs by MTT assay. Format: cell-based.
Details: not given
Turning to `O=C(Nc1cc(C(F)(F)F)cc(C(F)(F)F)c1)c1cc(Cl)ccc1O` [IMD-0354], the IC50 is > 100 µM.

Another data set addresses Focal adhesion kinase 1 (Homo sapiens) (UniProt Q05397). In words: Inhibition of FAK phosphorylation in human U2OS cells at 5 to 20 uM incubated for 48 hrs by Western blot analysis. Format: cell-based. Conditions: dose 5-20 µM. Background: Immunoblotting shows a protein as a band on a membrane.
Consider `O=C(Nc1ccc2c(cnn2C(=O)c2ccccc2)c1)c1cc(Cl)ccc1O`, for which the inhibition entry is “Active”.

System in the next data set: not listed separately
In words: Cytotoxicity against human MIHA cells assessed as reduction in cell viability at 40 uM incubated for 48 hrs by MTT assay.
Details: not given
Format: cell-based.
`O=C(Nc1ccc2[nH]ncc2c1)c1cc(Cl)ccc1O`: the Activity result is recorded as “Non-Toxic”.
Take `O=C(O)CCn1ncc2c(NC(=O)c3cc(Cl)ccc3O)cccc21`: the Activity entry was “Non-Toxic”.
On the same count and under the same terms, to `O=C(Nc1cccc2[nH]ncc12)c1cc(Cl)ccc1O` belongs “Non-Toxic”.
Still for that read-out and setting: to `O=C(Nc1cc(C(F)(F)F)cc(C(F)(F)F)c1)c1cc(Cl)ccc1O` [IMD-0354] belongs “Non-Toxic”; to `O=C(Nc1cccc2c1cnn2C(=O)c1c(Cl)cccc1Cl)c1cc(Cl)ccc1O`, “Non-Toxic”; to `CN(C)c1ccc(C(=O)n2ncc3c(NC(=O)c4cc(Cl)ccc4O)cccc32)cc1`, “Non-Toxic”.
The same measure, in the same setting: to `O=C(Nc1cccc2nn(CCO)cc12)c1cc(Cl)ccc1O` belongs “Non-Toxic”; to `CN(C)C(=O)Cn1ncc2c(NC(=O)c3cc(Cl)ccc3O)cccc21`, “Non-Toxic”; to `O=C(Nc1ccc2cn[nH]c2c1)c1cc(Cl)ccc1O`, “Non-Toxic”.
For `O=C(Nc1cccc2cc[nH]c12)c1cc(Cl)ccc1O`, the Activity entry was “Non-Toxic”.
Take `COc1ccc(NC(=O)n2ncc3c(NC(=O)c4cc(Cl)ccc4O)cccc32)cc1`: the Activity result is “Non-Toxic”.
Same read-out and setting: to `O=C(Nc1cccc2c1cnn2CCO)c1cc(Cl)ccc1O` belongs “Non-Toxic”.
Still for that read-out and setting: to `COC(=O)CCn1cc2c(NC(=O)c3cc(Cl)ccc3O)cccc2n1` belongs “Non-Toxic”; to `O=C(O)CCn1cc2c(NC(=O)c3cc(Cl)ccc3O)cccc2n1`, “Non-Toxic”.
On to `O=C(Nc1cccc2c1cnn2C(=O)N1CCOCC1)c1cc(Cl)ccc1O`, for which the Activity result is given as “Non-Toxic”.
For `O=C(Nc1cccc2[nH]ccc12)c1cc(Cl)ccc1O`, the Activity result was “Non-Toxic”.
For the molecule `CN(C)C(=O)Cn1cc2c(NC(=O)c3cc(Cl)ccc3O)cccc2n1`, the Activity result is “Non-Toxic”.
Same read-out and setting: to `COC(=O)CCn1ncc2c(NC(=O)c3cc(Cl)ccc3O)cccc21` belongs “Non-Toxic”; to `O=C(Nc1ccc2[nH]ccc2c1)c1cc(Cl)ccc1O`, “Non-Toxic”.
On the same count and under the same terms, to `CN(C)C(=O)n1ncc2c(NC(=O)c3cc(Cl)ccc3O)cccc21` belongs “Non-Toxic”; to `O=C(Nc1cccc2cn[nH]c12)c1cc(Cl)ccc1O`, “Non-Toxic”.

The next data set relates to U2OS. As to the kind of experiment: Cytotoxicity against human U2OS cells assessed as reduction in cell viability incubated for 48 hrs by MTT assay. Type of data set: functional, cell-based.
Details: not given
For `O=C(Nc1cc(C(F)(F)F)cc(C(F)(F)F)c1)c1cc(Cl)ccc1O` [IMD-0354], the IC50 amounted to 50.9 µM.

For a further data set, the target named is Focal adhesion kinase 1 (Homo sapiens) (UniProt Q05397). As to the kind of experiment: Inhibition of FAK phosphorylation in human MG-63 cells at 5 to 20 uM incubated for 48 hrs by Western blot analysis. Type of data set: cell-based. The settings on record: dose 5-20 µM.
Sequence of Focal adhesion kinase 1 (Homo sapiens) (Q05397 2-1052 limits assumed): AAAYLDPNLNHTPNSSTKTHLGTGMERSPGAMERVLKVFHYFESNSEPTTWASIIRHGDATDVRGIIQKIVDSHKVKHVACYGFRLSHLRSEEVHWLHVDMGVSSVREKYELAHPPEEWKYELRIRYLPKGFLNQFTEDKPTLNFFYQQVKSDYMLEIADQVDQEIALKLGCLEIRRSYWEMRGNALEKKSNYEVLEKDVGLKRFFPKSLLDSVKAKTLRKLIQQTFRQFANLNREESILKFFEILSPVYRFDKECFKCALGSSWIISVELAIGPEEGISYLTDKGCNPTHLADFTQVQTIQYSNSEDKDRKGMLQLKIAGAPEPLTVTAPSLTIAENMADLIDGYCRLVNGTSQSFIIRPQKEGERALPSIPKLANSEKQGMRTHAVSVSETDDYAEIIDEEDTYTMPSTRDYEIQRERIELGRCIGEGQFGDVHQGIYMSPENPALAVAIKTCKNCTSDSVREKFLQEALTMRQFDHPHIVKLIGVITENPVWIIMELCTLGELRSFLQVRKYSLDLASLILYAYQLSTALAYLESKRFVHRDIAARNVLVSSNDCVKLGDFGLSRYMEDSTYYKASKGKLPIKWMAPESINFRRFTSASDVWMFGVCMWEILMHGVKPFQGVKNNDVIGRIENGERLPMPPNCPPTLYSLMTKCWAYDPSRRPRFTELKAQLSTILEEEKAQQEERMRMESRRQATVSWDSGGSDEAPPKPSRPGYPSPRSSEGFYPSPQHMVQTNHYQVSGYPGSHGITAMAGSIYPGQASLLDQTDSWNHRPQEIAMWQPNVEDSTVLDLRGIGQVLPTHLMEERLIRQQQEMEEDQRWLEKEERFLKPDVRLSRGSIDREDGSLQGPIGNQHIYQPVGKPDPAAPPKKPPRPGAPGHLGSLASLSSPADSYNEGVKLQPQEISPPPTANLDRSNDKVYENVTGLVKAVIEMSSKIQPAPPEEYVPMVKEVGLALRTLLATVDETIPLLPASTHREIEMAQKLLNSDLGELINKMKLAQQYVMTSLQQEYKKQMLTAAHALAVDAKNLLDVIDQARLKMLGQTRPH
In the case of `O=C(Nc1ccc2c(cnn2C(=O)c2ccccc2)c1)c1cc(Cl)ccc1O`, the inhibition result is “Active”.
